Counter-ions that a name gives are not always drawn.
target: T1, human recombinant ENPP1 enzymes (Homo sapiens, UniProt P22413); assay: ENPP1 Enzyme Assay with cGAMP Substrate (AMP-Glo); type: biochemical; conditions: human recombinant ENPP1, cGAMP 5 μM, 37° C. 90 minutes, AMP-Glo luminescence; read-out: Enzymatic activity (IC50)
T1 construct: purchased R & D systems
T1 sequence (P22413 1-925): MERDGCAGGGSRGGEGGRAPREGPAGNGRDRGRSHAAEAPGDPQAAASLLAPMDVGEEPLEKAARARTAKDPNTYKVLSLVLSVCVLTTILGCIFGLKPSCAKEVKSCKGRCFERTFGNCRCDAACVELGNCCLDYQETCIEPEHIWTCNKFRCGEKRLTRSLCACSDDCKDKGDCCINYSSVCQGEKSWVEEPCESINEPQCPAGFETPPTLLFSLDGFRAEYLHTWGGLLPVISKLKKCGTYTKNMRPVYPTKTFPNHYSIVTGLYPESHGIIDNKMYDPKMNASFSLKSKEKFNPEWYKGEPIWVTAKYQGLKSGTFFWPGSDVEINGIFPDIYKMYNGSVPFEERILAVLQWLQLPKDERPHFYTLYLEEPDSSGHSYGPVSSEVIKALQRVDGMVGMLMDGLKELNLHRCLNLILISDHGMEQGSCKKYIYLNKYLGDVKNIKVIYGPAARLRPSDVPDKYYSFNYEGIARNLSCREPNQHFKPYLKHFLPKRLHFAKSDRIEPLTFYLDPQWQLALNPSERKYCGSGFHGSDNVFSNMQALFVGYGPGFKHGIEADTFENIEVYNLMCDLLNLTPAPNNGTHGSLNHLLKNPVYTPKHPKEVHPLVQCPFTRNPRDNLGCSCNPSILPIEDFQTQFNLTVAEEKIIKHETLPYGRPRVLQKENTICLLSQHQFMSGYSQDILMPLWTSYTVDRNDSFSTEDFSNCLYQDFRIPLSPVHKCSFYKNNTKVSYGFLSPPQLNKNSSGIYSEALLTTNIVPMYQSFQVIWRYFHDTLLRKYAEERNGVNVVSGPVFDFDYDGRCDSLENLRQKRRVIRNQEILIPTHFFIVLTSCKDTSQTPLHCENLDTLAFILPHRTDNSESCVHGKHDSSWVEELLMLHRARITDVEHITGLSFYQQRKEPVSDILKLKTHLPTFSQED
Method: ENPP1 hydrolyzes nucleotides or nucleotide derivatives to produce nucleoside-5′-monophosphate and pyrophosphate. In addition, ENPP1 hydrolyzes 2′,3′-cGAMP to produce 5′-adenosine monophosphate (AMP) and 5′-guanosine monophosphate (GMP). AMP produced from the reaction is measured using the AMP-Glo® kit (Promega). The AMP-Glo® kit contains two reagents. The first reagent terminates the AMP-producing enzymatic reaction, removes ATP and converts the produced AMP into ADP. The second reagent converts ADP into ATP which is used to generate luminescence in the luciferase reaction. The amount of luminescence measured is proportional to the amount of AMP produced by ENPP1.
The final reaction solution contains 50 mM Tris (pH 8.5) buffer, 250 mM NaCl, 0.5 mM CaCl2), 1 μM ZnCl2, 5% glycerol and 1% DMSO. Serially diluted ENPP1 inhibitors (typically in the range of 10 μM to 0.5 nM) were pre-stored with human recombinant ENPP1 enzymes (R & D systems) at 3 ng/reaction and room temperature (RT) for 5 to 10 minutes. The reaction was initiated by addition of cGAMP (at a final concentration of 5 μM) and reacted at 37° C. for 90 minutes. At the end of the reaction, 10 μl of the AMP-Glo first reagent was added to stop the reaction and the result was stored at room temperature for 1 hour. After storage, 20 μl of an AMP detection solution (a mixture of AMP-Glo II reagent and Kinase-Glo at a ratio of 1:100) was added and stored at room temperature for 1 hour. Luminescence signals were measured using a Victor® plate reader (Perkin Elmer). The maximal activity control (containing enzymes and substrates in the presence of 1% DMSO; MAX) and the minimal activity control (containing substrates and 1% DMSO; MIN) were evaluated simultaneously. In each experiment, serially diluted reference ENPP1 inhibitors were tested as well. IC50, indicating % residual activity versus compound concentration was determined by fitting inhibition curves using the 3-parameter analysis of GraphPad Prism® software. Serially diluted samples of one compound were tested two or more times and an average IC50 of each compound was calculated.

IC50	Structure (SMILES)
< 1 µM	COc1ccc2c(c1)nnn2C1CCC(CNS(N)(=O)=O)C1 (stereo not shown) [Example 41, N-((3-(5-methoxy-1H-benzo[d][1,2,3]triazol-1-yl)cyclopentyl)methyl)sulfamide]
< 1 µM	COc1ccc2c(c1)nnn2-c1ccc([C@H](C)N)cc1 [Example 14, (S)-1-(4-(5-methoxy-1H-benzo[d][1,2,3]triazol-1-yl)phenyl)ethan-1-amine Hydrochloride]
> 10 µM	COc1ccc2c(c1)nnn2C1CCC(CN)CC1 (stereo not shown) [Example 2]
1 to 10 µM	COc1ccc2c(c1)nnn2-c1ccc(CNS(N)(=O)=O)cc1OC [Example 68, N-(3-methoxy-4-(5-methoxy-1H-benzo[d][1,2,3]triazol-1-yl)benzyl)sulfamide]
> 10 µM	COc1cc2nnn(-c3ccc4c(c3)CNC4)c2cc1OC [Example 29, 1-(isoindolin-5-yl)-5,6-dimethoxy-1H-benzo[d][1,2,3]triazole Hydrochloride]
< 1 µM	COc1ccc2c(c1)nnn2-c1ccc(CP(=O)(O)O)cc1 [Example 119]
> 10 µM	COc1ccc2nnn(-c3ccc(CN)cc3)c2c1 [Example 7, 4-(6-methoxy-1H-benzo[d][1,2,3]triazol-1-yl)phenyl)methanamine Hydrochloride]
> 10 µM	COc1ccc2c(c1)nnn2C12CC(CN)(C1)C2 [Example 30]
< 1 µM	COc1ccc2c(c1)nnn2-c1ccc(CN(C)S(N)(=O)=O)cc1F [Example 81, N-(3-fluoro-4-(5-methoxy-1H-benzo[d][1,2,3]triazol-1-yl)benzyl)-N-methylsulfamide]
< 1 µM	COc1ccc2c(c1)nnn2-c1ccc2c(c1)CCN(S(N)(=O)=O)C2 [Example 96, 6-(5-methoxy-1H-benzo[d][1,2,3]triazol-1-yl)-3,4-dihydroisoquinoline-2(1H)sulfonamide]
< 1 µM	COc1cccc2c1nnn2-c1ccc(CNS(N)(=O)=O)cc1 [Example 50, N-(4-(4-methoxy-1H-benzo[d][1,2,3]triazol-1-yl)benzyl)sulfamide]
> 10 µM	CC(C)Oc1ccc2c(c1)nnn2-c1ccc(CN)cc1F [Example 20]
> 10 µM	NS(=O)(=O)NCc1ccc(-n2nnc3cc(C(F)(F)F)ccc32)cc1 [Example 84]
< 1 µM	COc1ccc2c(c1)nnn2-c1ccc(CN(C2CC2)S(N)(=O)=O)cc1 [Example 82, N-cyclopropyl-N-(4-(5-methoxy-1H-benzo[d][1,2,3]triazol-1-yl)benzyl)sulfamide]
> 10 µM	COc1ccc2c(c1)nnn2-c1cc(F)c(CN)c(F)c1 [Example 18]
< 1 µM	COc1ccc2c(c1)nnn2-c1ccc(NS(N)(=O)=O)cc1 [Example 48, N-(4-(5-methoxy-1H-benzo[d][1,2,3]triazol-1-yl)phenyl)sulfamide Hydrochloride]
> 10 µM	COc1ccc2c(c1)nnn2-c1ccc(P(=O)(O)O)cc1 [Example 118]
< 1 µM	COc1ccc2c(c1)nnn2-c1cccc(CCNS(N)(=O)=O)c1 [Example 72, N-(3-(5-methoxy-1H-benzo[d][1,2,3]triazol-1-yl)phenethyl)sulfamide]
< 1 µM	NS(=O)(=O)NCc1cc(F)c(-n2nnc3ccccc32)c(F)c1 [Example 58, N-(4-(1H-benzo[d][1,2,3]triazol-1-yl)-3,5-difluorobenzyl)sulfamide]
< 1 µM	COc1ccc2c(c1)nnn2-c1ccc(CNS(N)(=O)=O)c(F)c1 [Example 60, N-(2-fluoro-4-(5-methoxy-1H-benzo[d][1,2,3]triazol-1-yl)benzyl)sulfamide]

IC50	Structure (SMILES)
> 10 µM	CC(C)Oc1ccc2c(c1)nnn2-c1ccc(CNS(N)(=O)=O)cc1F [Example 77, N-(3-fluoro-4-(5-isopropoxy-1H-benzo[d][1,2,3]triazol-1-yl)benzyl)sulfamide]
> 10 µM	NS(=O)(=O)NCc1ccc(-n2nnc3cc(OC(F)(F)F)ccc32)c(F)c1 [Example 90]
< 1 µM	COc1ccc2c(c1)nnn2-c1ccc(CNS(N)(=O)=O)cc1C [Example 66, N-(4-(5-methoxy-1H-benzo[d][1,2,3]triazol-1-yl)-3-methylbenzyl)sulfamide]
< 1 µM	COc1ccc2nnn(-c3ccc(CNS(N)(=O)=O)cc3)c2c1 [Example 52, N-(4-(6-methoxy-H-benzo[d][1,2,3]triazol-1-yl)benzyl)sulfamide]
< 1 µM	COc1ccc2c(c1)nnn2C1CCN(CCS(N)(=O)=O)CC1 [Example 44, 2-(4-(5-methoxy-1H-benzo[d][1,2,3]triazol-1-yl)piperidin-1-yl)ethane-1-sulfonamide]
> 10 µM	COc1cccc2nnn(-c3ccc(CN)cc3)c12 [Example 8, 4-(7-methoxy-1H-benzo[d][1,2,3]triazol-1-yl)phenyl)methanamine Hydrochloride]
> 10 µM	CC(F)(F)c1ccc2c(c1)nnn2-c1ccc(CN)cc1 [Example 21]
> 10 µM	NS(=O)(=O)NCc1ccc(-n2nnc3cc(OCF)ccc32)c(F)c1 [Example 88]
> 10 µM	COc1ccc2c(c1)nnn2-c1ccc2c(c1)CN(S(N)(=O)=O)CCC2 [Example 98, 8-(5-methoxy-1H-benzo[d][1,2,3]triazol-1-yl)-1,3,4,5-tetrahydro-2H-benzo[c]azepine-2-sulfonamide]
< 1 µM	COc1ccc2c(c1)nnn2-c1c(F)cc(CNS(N)(=O)=O)cc1F [Example 64, N-(3,5-difluoro-4-(5-methoxy-1H-benzo[d][1,2,3]triazol-1-yl)-benzyl)sulfamide]
> 10 µM	COc1ccc2c(c1)nnn2-c1cc(C)sc1CN [Example 31, 3-(5-methoxy-1H-benzo[d][1,2,3]triazol-1-yl)-5-methylthiophen-2-yl)methanamine Hydrochloride]
> 10 µM	COc1ccc2c(c1)nnn2-c1ccc(C(=O)O)cc1F [Example 116, 3-fluoro-4-(5-methoxy-1H-benzo[d][1,2,3]triazol-1-yl)benzoic Acid]
< 1 µM	COc1ccc2c(c1)nnn2-c1ccc(CN)cc1Cl [Example 15, 3-chloro-4-(5-methoxy-1H-benzo[d][1,2,3]triazol-1-yl)phenyl)methanamine Hydrochloride]
< 1 µM	COc1ccc2c(c1)nnn2-c1ccc(CNS(N)(=O)=O)cc1Cl [Example 59, N-(3-chloro-4-(5-methoxy-1H-benzo[d][1,2,3]triazol-1-yl)benzyl)sulfamide]
< 1 µM	COc1ccc2c(c1)nnn2-c1ccc2c(c1)CN(S(N)(=O)=O)C2 [Example 94, 5-(5-methoxy-1H-benzo[d][1,2,3]triazol-1-yl)isoindoline-2-sulfonamide]
< 1 µM	COc1ccc2c(c1)nnn2-c1ccc(CNS(N)(=O)=O)nc1 [Example 78]
> 10 µM	COc1cc2nnn(-c3cc(F)c(CN)cc3F)c2cc1OC [Example 28]
> 10 µM	CC(F)(F)c1ccc2c(c1)nnn2-c1ccc(CN)cc1F [Example 22]
1 to 10 µM	COc1cc2nnn(-c3ccc(CNS(N)(=O)=O)cc3)c2cc1C [Example 69, N-(4-(5-methoxy-6-methyl-1H-benzo[d][1,2,3]triazol-1-yl)benzyl)sulfamide]
< 1 µM	COc1cc2nnn(-c3ccc4c(c3)CC(NS(N)(=O)=O)C4)c2cc1OC (stereo not shown) [Example 103, N-(5-(5,6-dimethoxy-1H-benzo[d][1,2,3]triazol-1-yl)-dihydro-1H-inden-2-yl)sulfamide]

Reference: patent publication US20240116882A1, “NOVEL BENZOTRIAZOLE DERIVATIVE HAVING INHIBITORY ACTIVITY AGAINST ECTONUCLEOTIDE PYROPHOSPHATASE-PHOSPHODIESTERASE, AND USE THEREOF” (TXINNO BIOSCIENCE INC., priority 2021, published 2024)
